Drawing on ChEMBL document CHEMBL4052713, “Bioactivity-guided isolation of chemical constituents against H2O2-induced neurotoxicity on PC12 from Cimicifuga dahurica (Turcz.) Maxim” (Bioorg Med Chem Lett, 2017), this text covers Activity for 3 compounds.

Structures are written as SMILES. Calls of active or inactive are those of the source. The rule behind the calls is not given here.

The subject of this test is PC-12. Nature of the test: Neuroprotective activity in rat PC12 cells assessed as reduction in H2O2-induced cytotoxicity at 1 to 10 uM pre-incubated for 24 hrs followed by H2O2 exposure for 24 hrs by MTT assay. Type of test: functional, cell-based.
Turning to `CCOC(=O)[C@](O)(Cc1ccc(O)cc1)[C@@H](O)C(=O)O`, the result was Active. Regarding `CCOC(=O)[C@@H](OC(=O)/C=C/c1ccc(O[C@@H]2O[C@H](CO)[C@@H](O)[C@@H](O)[C@H]2O)c(OC)c1)[C@@](O)(Cc1ccc(O)cc1)C(=O)O`, the outcome was Active. With `CCOC(=O)[C@H](O)[C@@](O)(Cc1ccc(O)cc1)C(=O)O`, the result was Active.
